Experimental findings from patent publication US8895004B2 (priority 2007, dated 2014) are described below.

Assay [1] has as its system cultured hippocampal neurons treated with ω-conotoxin (P/Q-dominated cells). It is filed as cell-based, rat.
The target in a further assay is N-type currents (Rattus norvegicus, UniProt Q02294). It is filed as cell-based.

“Also recorded” adds a separate entry of the source.

Take `CC[C@H](CO)Nc1nc(NCc2ccccc2)c2ncn(C(C)C)c2n1` [roscovitine]: in assay [1], the “amplitude of spontaneous synaptic currents” value is on record as “No effect” and the “reversal of Aβ globulomer-induced reduction of frequency of spontaneous synaptic events” value was “reversal”.
In the case of “Aβ(1-42) globulomer: soluble, globular, non-covalent association of Aβ(1-42) peptides, apparent molecular weight 38/48 kDa, obtained as in Example 6b of WO2004/067561”, in the assay with N-type currents, the “N-type calcium current amplitude” value is reported as 1399.8±376.4 pA. Besides, in assay [1], the “amplitude of synaptic events (mIPSCs)” value is “no or little effect; also recorded: no effect”, the “effect on amplitude of mIPSCs when P/Q channels are already blocked” value was “No effect”, the “effect on synaptic activity / frequency of mIPSCs after blockade of P/Q channels by ω-agatoxin” value is listed as “No additive effect; also recorded: no further effect” and the “frequency of spontaneous synaptic events” value is “inhibits the frequency of spontaneous synaptic events”.
